{"source": "patent US20080292616A1", "about": "“Topical Formulations of Histone Deacetylase Inhibitors and Methods Using the Same” (Government of the United of America, Represented by the …, priority 2005, published 2008)", "key": {"[1]": {"system": "New Zealand white rabbits", "experiment": "Topical toxicity study in rabbits, 4 hours daily application (Example 1)", "settings": "2.5 mg/kg topically for 14 days", "quoted_text": "A study uses New Zealand white rabbits to determine topical toxicity of the depsipeptide FR901228 when applied topically in either Cetaphil° lotion (CL) or Aquaphor cream (AC).\nThe dose of depsipeptide is 2.5 mg/kg/day (30 mg/m2/d); controls receive vehicle (Aquaphor or Cetaphil) in place of depsipeptide. A highly intense dosing regimen is employed to study toxicity. The study is designed for application of the respective topical composition to the rabbits for 4 hours daily for 28 days. The four-hour application is accomplished by removing the applied composition approximately four hours after application. Four groups of rabbits (2 rabbits/sex/group) are used with two control and two experimental groups. The control groups receive carrier alone (CL or AC) and the experimental groups receive FR901228 in the respective carriers. The experimental parameters include weekly testing of clinical pathology and plasma drug levels. Histopathology is performed at days 15 and 28."}, "[2]": {"settings": "intravenous infusion over 4 hours on days 1 and 5 of a 21-day cycle; cited from earlier work"}, "[3]": {"system": "rabbits", "experiment": "Topical tolerability study in rabbits, three times weekly for 4 weeks (Example 2)", "type": "in vivo, rabbit", "description": "The dose used is again 2.5/mg/kg/d (30 mg/m2/d) FR901228 or vehicle in AC, but is applied topically, 4 hrs. a day, for 4 weeks, three times weekly. The study parameters include weekly clinical pathology and histopathology takes place at days 27 and 41. The compositions are applied to substantially all of the rabbit's back. In the case of a human patient or other diseased subject, the composition can be applied to disease-affected and/or non-affected surface areas."}, "[4]": {"settings": "FR901228 in AC, 2.5 mg/kg/d topical, 4 hrs a day, 4 weeks"}}, "data": [{"smiles": "C/C=C1\\NC(=O)[C@H]2CSSCC/C=C/[C@H](CC(=O)N[C@H](C(C)C)C(=O)N2)OC(=O)[C@H](C(C)C)NC1=O", "note": "[FR901228, (E)-(1S, 4S, 10S, 21R)-7-[(Z)-ethylidene]-4,21-diisopropyl-2-oxa-12,13-dithia-5,8,20,23-tetraazabicyclo [8,7,6]-tricos-16-ene-3,6,19,22-pentanone]", "values": [{"measurement": "skin toxicity at the application site (conclusion)", "setting": "[1]", "value": "significant skin toxicity at the application site"}, {"measurement": "maximum tolerated dose", "setting": "[2]", "value": 17.8, "unit": "mg/m2"}, {"measurement": "Draize scoring", "setting": "[3]; [4]", "value": "slight to well-defined"}, {"measurement": "onset of red skin at the application site", "setting": "[3]; [4]", "value": 9, "unit": "days"}, {"measurement": "pathology: microscopic lesions at the application site", "setting": "[3]; day 27, FR901228 in AC", "value": "ulcers of minimal severity"}, {"measurement": "increased FBN", "setting": "[3]; days 4, 11, and 27, FR901228 in AC", "value": "1.6-2 ×"}]}]}
